This is an account of results in patent US6545030B1, “1-heterocycle substituted diarylamines” (Warner-Lambert Company, priority 1999, dated 2003).

The structures appear in SMILES notation. Structures can show the parent of a compound that is named as a salt.

`Cc1cc(I)ccc1Nc1ccc(Cl)cc1C1=NC(C)(C)CO1` (as salt: salt) [Example 1, [4-Chloro-2-(4,4-Dimethyl-4,5-dihydro-oxazol-2-yl)-phenyl]-(4-iodo-2-methyl-phenyl)-amine] came in with a melting point of 324 to 330 °C. As for `Cc1cc(I)ccc1Nc1c(-c2nnco2)ccc(F)c1F` [Example 9, (2,3-Difluoro-6-[1,3,4]oxadiazol-2-yl-phenyl)-(4-iodo-2-methyl-phenyl)-amine], the melting point lay in the range of 144.4 to 145.5 °C. The value for `Cc1cc(I)ccc1Nc1c(-c2nnc(S)o2)ccc(F)c1F` [Example 10, 5-[3,4-Difluoro-2-(4-iodo-2-methyl-phenylamino)-phenyl]-[1,3,4]oxadiazole-2-thiol] was 231.8 to 232.8 °C.
